In US10301308B2, “Azetidine derivatives for tau imaging” (Eli Lilly and Company, priority 2015, dated 2019):

Columns and labels:
[1] = system: normal human brain tissue; assay: Autoradiography on normal versus AD human brain slices, less stringent or alcohol free washes; assay type: binding
From the text: In order to show the absence of non-tau binding, autoradiography scans are obtained from 3-(3-[18F]-fluoroazetidin-1-yl)-8-methylbenzo[4,5]imidazo[1,2-a]pyridine on normal human brain tissue. The experimental procedure is the same as provided in Example 5 except that only 20 uCi of 18F-ligand is applied to the tissue slices and the washing conditions are less stringent. […] The autoradiography is further carried out with no ethanol in the washing solutions.

[2] = Preliminary stability of Compound 8 formulations (radiochemical purity by HPLC); assay type: physicochemical
Protocol: The HPLC fraction containing the purified 3-(3-[18F]-fluoroazetidin-1-yl)-8-methylbenzo[4,5]imidazo[1,2-a]pyridine is diluted with 0.5% (w/v) sodium ascorbate in WFI (40 mL). The diluted solution is then passed through a Sep-Pak® C18 Plus Light Cartridge (130 mg Sorbent per Cartridge, 55-105 μm Particle Size, Waters Part No. WAT023501; conditioned with ethanol (5 mL) then WFI (5 mL) prior to use) and the retained 3-(3-[18F]-fluoroazetidin-1-yl)-8-methylbenzo[4,5]imidazo[1,2-a]pyridine is washed with 0.5% (w/v) sodium ascorbate in water for injection solution (10 mL). 3-(3-[18F]-fluoroazetidin-1-yl)-8-methylbenzo[4,5]imidazo[1,2-a]pyridine is eluted off the C18 cartridge using dehydrated alcohol, USP (1 mL) into a flask containing 7 mL of 0.5% (w/v) sodium ascorbate in 0.9% sodium chloride for injection, USP. The C18 cartridge is then rinsed with an additional 2 mL of 0.5% (w/v) sodium ascorbate in 0.9% sodium chloride for injection, USP. The resulting solution (total 10 mL) is sterile filtered through a 0.22 μm Millex GV PVDF filter (Millipore SLGV013SL) into the bulk product vial (BPV: 30 mL Sterile Empty Vial from Allergy Laboratories with a 20 mm chlorobutyl stopper). A sample from the BPV is taken out for quality control (see FIG. 2 for representative chromatogram) by HPLC using the gradient method detailed in Table 1 below.
Preliminary stability of 3-(3-[18F]-fluoroazetidin-1-yl)-8-methylbenzo[4,5]imidazo[1,2-a]pyridine (Compound 8) formulations are evaluated. Samples from batches (size ranging from 235 mCi to 471 mCi) are taken and analyzed by HPLC for radiochemical purity over an 6 hour time period.

tau protein = assay: Clinical PET imaging of tau protein in the brain (SUVr); assay type: in vivo, human
Protocol: Clinical evaluation of 3-(3-[18F]-Fluoroazetidin-1-yl)-8-methylbenzo[4,5]imidazo[1,2-a]pyridine (Compound 8) as a PET radioligand for imaging tau protein deposition in patients with AD or other neurodegenerative disorders is conducted in healthy volunteers. AD patients, or Chronic Traumatic Encephalopathy (CTE) subjects, by completion of one or more PET scans with Compound 8. Dynamic PET imaging is acquired on a Siemens ECAT EXACT HR+ over 150 minutes following Compound 8 or [18F]AV-1451 injection (0-60 and 90-150 minute imaging segments). Compound 8 or [18F]AV-1451 scans are acquired similarly in two imaging sessions. A brain MRI is also obtained. PET and MRI images are aligned and normalized, and ATLAS-based volumes of interest (VOI) are applied to the dynamic PET series. Compound 8 or [18F]AV-1451 are evaluated in terms of kinetic profile as well as target region to cerebellum standardized uptake value ratio (SUVr between 100-120 min) between healthy volunteers and AD or CTE subjects.

[3] = target: PHF (tau from Alzheimer's disease donors) (Homo sapiens, UniProt P10636); assay: Saturation binding of radiolabeled compound to PHF (Kd determination); conditions: tau obtained from donors with Alzheimer's disease
From the text: Purified, soluble PHF is isolated from AD brain tissue using a protocol modified from the procedure described by Jicha, et al. (G. A. Jicha, A. O'Donnell, C. Weaver (1999) “Hierarchical phosphorylation of recombinant tau by the paired-helical filament-associated protein kinase is dependent on cyclic AMP-dependent protein kinase” J Neurochem. 72(1):214). Briefly, AD cortex is homogenized using a handheld Kinematica Polytron, followed by high pressure batch—gas expansion using a Parr Cell disruption bomb. Crude homogenate is centrifuged at 28 kg to pellet cell debris. […]
The dissociation constant [Kd] for the radiolabeled compound 3-(3-[18F]-fluoroazetidin-1-yl)-8-methylbenzo[4,5]imidazol[1,2-a]pyridine is determined by saturation binding, in which the total and nonspecific binding of the radioligand are measured at various radioligand concentrations. […] After incubation for 1.5 h at 37° C., the bound radioactivity is harvested by vacuum filtration onto Millipore MultiScreenHTS 96-well glass fiber FB filter plates, using a Millipore MultiScreenHTS Vacuum Manifold, followed by five washes with PBS. Filters containing bound 3-(3-[18F]-fluoroazetidin-1-yl)-8-methylbenzo[4,5]imidazo[1,2-a]pyridine are assayed for radioactivity in a Wizard 2480 automatic gamma-counter [Perkin Elmer]. […]

[4] = batch 235 mCi, 23.5 mCi/mL, 10% EtOH, 0.45% Sodium Ascorbate in 0.9% Sodium Chloride
[5] = batch 295 mCi, 14.8 mCi/mL, 10% EtOH, 0.45% Sodium Ascorbate in 0.9% Sodium Chloride
[6] = batch 337 mCi, 33.7 mCi/mL, 10% EtOH, 0.45% Sodium Ascorbate in 0.9% Sodium Chloride
[7] = batch 471 mCi, 47.1 mCi/mL, 10% EtOH in 0.9% Sodium Chloride (no sodium ascorbate)

Chain of PHF (tau from Alzheimer's disease donors) (P10636 623-708 limits assumed): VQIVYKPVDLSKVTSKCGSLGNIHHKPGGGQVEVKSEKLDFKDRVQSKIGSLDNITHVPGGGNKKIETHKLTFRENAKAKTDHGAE

Stability Results (% RCP) T0 ([2]; batch 235 mCi, 23.5 mCi/mL, 10% EtOH (v/v), 0.45% (w/v) Sodium Ascorbate in 0.9% Sodium Chloride Injection, USP): 98 % RCP
Stability Results (% RCP) T0+2 h [2, 4]: 97 % RCP
Stability Results (% RCP) T0+4 h [2, 4]: 97 % RCP
Stability Results (% RCP) T0+6 h ([2]; batch 235 mCi, 23.5 mCi/mL, 10% EtOH, 0.45% Sodium Ascorbate in 0.9% Sodium Chloride, T0+6 h): 97 % RCP
Stability Results (% RCP) T0 [2, 5]: 97 % RCP
Stability Results (% RCP) T0+2 h [2, 5]: 96 % RCP
Stability Results (% RCP) T0+4 h [2, 5]: 96 % RCP
Stability Results (% RCP) T0+6 h ([2]; batch 295 mCi, 14.8 mCi/mL, 10% EtOH, 0.45% Sodium Ascorbate in 0.9% Sodium Chloride, T0+6 h): 96 % RCP
Stability Results (% RCP) T0 [2, 6]: 98 % RCP
Stability Results (% RCP) T0+2 h [2, 6]: 97 % RCP
Stability Results (% RCP) T0+4 h [2, 6]: 96 % RCP
Stability Results (% RCP) T0+6 h ([2]; batch 337 mCi, 33.7 mCi/mL, 10% EtOH, 0.45% Sodium Ascorbate in 0.9% Sodium Chloride, T0+6 h): 96 % RCP
Stability Results (% RCP) T0 ([2]; batch 471 mCi, 47.1 mCi/mL, 10% EtOH (v/v) in 0.9% Sodium Chloride Injection, USP (no sodium ascorbate)): 89 % RCP
Stability Results (% RCP) T0+2 h [2, 7]: 89 % RCP
Stability Results (% RCP) T0+4 h [2, 7]: 80 % RCP
Stability Results (% RCP) T0+6 h ([2]; batch 471 mCi, 47.1 mCi/mL, 10% EtOH in 0.9% Sodium Chloride (no sodium ascorbate), T0+6 h column, value taken at 5 h): 0 (5 h) % RCP
radiochemical purity retained ([2]; batches formulated with sodium ascorbate, up to 6 hours): 96-97%
Kd [3]: 0.85 ± 0.02 nM
Compound: Cc1ccc2nc3cc(N4CC([18F])C4)ccn3c2c1 [Compound 8, 3-(3-[18F]-fluoroazetidin-1-yl)-8-methylbenzo[4,5]imidazo[1,2-a]pyridine]
blocking of signal in AD brain tissue ([1]; AD30121, frontal cortex): can be blocked by non-radiolabelled compound or with the known tau PET tracer T807
autoradiography signal in normal cortical or white matter tissue compared to [18F]T807 ([1]; no ethanol in the washing solutions): much lower autoradiography signal
radioactivity signal in normal tissue ([1]; washes PBS, 10% ethanol/PBS, 30% ethanol/PBS, PBS, vs AD brain tissue): considerably lower than in AD brain tissue
stability of formulation over time ([2]; batch formulated without sodium ascorbate): deteriorates over time and degrades by 5 hours
SUVr values compared to [18F]AV-1451 (tau protein; AD subjects): slightly higher SUVr values compared to [18F]AV-1451
mean SUVr averaged over all regions (tau protein; AD subjects): ~1.6
uptake in cortical brain regions, AD subjects compared with healthy controls (tau protein; AD subjects vs healthy controls): Higher uptake
SUVr in other cortical regions (tau protein; CTE subject): ~1.0
SUVr in focal sub-regions with high uptake (tau protein; CTE subject, sub-regions of inferior lateral parietal, superior parietal and posterior temporal cortex): ~1.5
mean SUVr averaged over all regions (tau protein; healthy volunteer subjects): ~1.1
SUVr in cortical regions (tau protein; healthy volunteer subjects, target region to cerebellum): 1.0-1.1
